Measured values from patent US5900250A, “Monoglyceride/lactate ester permeation enhancer for oxybutnin” (ALZA Corporation, priority 1998, dated 1999).

Columns and labels:
[1] = in vitro permeation of oxybutynin through human epidermis at 35° C., EVA 40 systems on horizontal permeation cells (Examples 4-5); type: in vitro ADME; conditions: R- or S-oxybutynin versus racemate
Procedure: Oxybutynin, glycerol monolaurate and lauryl lactate were then added.
When EVA 40 was used the mixture was blended, cooled and calendered to a 5 mil thick film. This film was then laminated to an acrylic contact adhesive (MSP041991P, 3M) on one side and Medpar® backing (3M) on the opposite side. The laminate was then cut into 2.54 cm^2 circles using a stainless steel punch. Circular pieces of human-epidermis were mounted on horizontal permeation cells with the stratum corneum facing the donor compartment of the cell. The release liner of the system was then removed and the system was centered over the stratum corneum side of the epidermis.

[2] = type: in vivo, human; conditions: after the initial application; transdermal with permeation enhancing mixture
Procedure: Therapeutic blood levels can be achieved within approximately 6-10 hours after the initial application, and blood concentrations are maintained with subsequent system applications. The range of desired and achievable system permeation rates of oxybutynin, arriving through the skin from a limited area, is 1-20 mg over a period of 24 hours. The system application is easily adapted for shorter or longer duration treatments, but generally 72 hours is the duration for a single application.

[3] = aqueous solution 25 mg/mL, 0.05 M isotonic phosphate buffer, 20 μm polybutadiene film, cited from earlier work
[4] = solubility of glycerol monolaurate in lauryl lactate / EVA 40; type: physicochemical; conditions: for Wt % GML in solution: based on GML solubility of 350 mg/g
Source text: The unexpected effects of the specific weight percentages of the components of the permeation enhancer mixture are believed to be due, in part, to the solubility of the monoglyceride in the lactic acid ester. It is known that monoglycerides by themselves are effective permeation enhancers. The enhancement occurs by the solubilization of the monoglyceride in the lipid layer of the skin. The solubilization of the monoglyceride in the lipid layer increases as a function of lactic acid ester concentration. […] Thus, the amount of GML dissolved, ie, free GML, is dictated by and proportional to the lauryl lactate loading in the polymer.

Structure (SMILES): CCN(CC)CC#CCOC(=O)[C@](O)(c1ccccc1)C1CCCCC1 [R-oxybutynin]
- flux of enantiomer relative to racemate, in words [1]: approximately equivalent to that of the racemate

Structure (SMILES): CCN(CC)CC#CCOC(=O)C(O)(c1ccccc1)C1CCCCC1 (centres unmarked) [Oxybutynin]
- time to therapeutic blood levels [2]: 6 to 10 h
- in vitro release rate (per area) [3]: ~10 μg/cm^2.hr
- in vitro release rate (amount over 24 hours) ([3]; through a 49 cm^2 area): approximately 12 mg over 24 hours

Structure (SMILES): CCN(CC)CC#CCOC(=O)[C@@](O)(c1ccccc1)C1CCCCC1 [S-oxybutynin]
- flux of enantiomer relative to racemate, in words [1]: approximately equivalent to that of the racemate

Structure (SMILES): CCCCCCCCCCCC(=O)OCC(O)CO (centres unmarked) [GML, glycerol monolaurate]
- Wt % GML in solution ([4]; 12% lauryl lactate in EVA 40): 4.2%
- Wt % GML in solution ([4]; 20% lauryl lactate in EVA 40): 7.0%
- Wt % GML in solution ([4]; 27% lauryl lactate in EVA 40): 9.5%
- Wt % GML in solution ([4]; 30% lauryl lactate in EVA 40): 10.5%
- solubility in EVA 40 matrix ([4]; EVA 40 matrix): practically insoluble
- solubility of glycerol monolaurate in lauryl lactate ([4]; solution stirred): 350 mg/g of solution
